In article PMC7165133, “Functional expression and characterization of cinnamic acid 4-hydroxylase from the hornwort Anthoceros agrestis in Physcomitrella patens” (Plant Cell Reports, 2020):

Experiments:
[1] = tested on: T1, Physcomitrella patens NADPH:cytochrome P450 reductase(s) (CPR or POR), in Pp_AaC4H; experiment: HPLC of 4-coumaric acid formed (coupled C4H reaction), Michaelis-Menten fit; format: biochemical, Physcomitrium patens; conditions: 400 µM cinnamic acid, pH 7.0, 25 °C, 5 min; crude extract; NADPH oxidised by CPR, read-out via C4H; read-out: apparent Km
T1 construct: native reductase(s) of the host moss, four putative CPR genes; crude protein extract of moss expressing C-terminally 6xHis-tagged AaC4H; with trans-cinnamate 4-monooxygenase (Anthoceros agrestis)

[2] = tested on: T2, Physcomitrella patens NADPH:cytochrome P450 reductase(s) (CPR or POR), in Pp_WT; experiment: as above; format: biochemical, Physcomitrium patens; conditions: 400 µM cinnamic acid, pH 7.0, 25 °C, 5 min; crude extract of untransformed moss; NADPH oxidised by CPR, read-out via C4H; read-out: apparent Km
T2 construct: native reductase(s), four putative CPR genes; crude protein extract of untransformed moss with its own C4Hs; with trans-cinnamate 4-monooxygenase; trans-cinnamate 4-monooxygenase

Pp_WT (PpC4Hs) = tested on: T3, Pp_WT (PpC4Hs); experiment: HPLC of 4-coumaric acid formed, Michaelis-Menten fit; format: biochemical, Physcomitrium patens; conditions: 5 mM NADPH, pH 7.0, 25 °C, 5 min; crude extract of untransformed moss; read-out: apparent Km
T3 construct: gene PpC4H_1; native, crude protein extract of untransformed moss; six putative C4H genes, only two named in the main text; with NADPH--cytochrome P450 reductase

[3] = substrate: O=C(O)/C=C/c1ccccc1; experiment: cells, lysate or membranes; conditions: 5 mM NADPH, pH 7.0, 25 °C, 5 min, crude extract with endogenous PpC4H background

Q: How did the Km [1] turn out when `NC(=O)C1=CN([C@@H]2O[C@H](COP(=O)(O)OP(=O)(O)OC[C@H]3O[C@@H](n4cnc5c(N)ncnc54)[C@H](OP(=O)(O)O)[C@@H]3O)[C@@H](O)[C@H]2O)C=CC1` [NADPH] was run?
A: The Km was 88 ± 19.5 µM.

Q: What about the Km [2] of the same molecule?
A: Its Km is 92.3 ± 10.8 µM.

Q: For `O=C(O)/C=C/c1ccccc1` [t-cinnamic acid], which Km (Pp_WT (PpC4Hs)) is on record?
A: Its Km is 25.1 ± 8.9 µM.

B1: Pp_AaC4H (AaC4H, CYP73A260) (Anthoceros agrestis) (protein)
chain: MASGETTLGSTNTMFLDALSILEALLATIAVLWLVKQVTSSRLKPPPGPLALPILGNWLQVGDDLNHRNLSDLAKKYGDIFLLRMGQRNVVVVSSPELAKEVLLTQGVEFGSRTRNVVFDIFTGKGQDMVFTVYGEHWRRMRRIMTVPFFTSKVVQQSRVAWEDETDRVIADLKTNPKYAAASTTGVVLRQRLQLLMYNTMYRLMFDRRFESEDDPLFVQLKALNGERSRLAQSFEYNYGDFIPVLRPLLRNYLKICQDIKDRRLALFKNHFLDERKKLLDTKRSQTAASTGKCAIDHILDAQKNGKINEDNVLYIVENINVAAIETTLWSMEWGLAELVNNPDIQQKVREELDHVLGKGTPLTEPDIQAGKLSYLAAVVKETLRLHMAIPLLVPHMNLHQARLGGYDIPAESKVLVNAWYLANNPALWKDPETFRPERFLEGDKGAEPNGTDFRFLPFGVGRRSCPGIILALPLLNLVLGRLVQSFLLTCPPGVEKLDLSEKGGQFSLHIAAHSNIVVKPRPDM
Q: For B1, which Km [3] is on record?
A: The Km was 17.3 ± 5.0 µM.
